Measured values taken from PMC3703636 (2013).

Legend:
Assay in all cases: gel filtration, radiolabeled GTP
Conditions in all cases: reduced relative to wild type
[1] = system: c-MYC transcriptional repressor mut (DNA, G4) GGGTAGGAAGGGTAGGA
[2] = system: VEGF IRES mut (RNA, G4) UGAUGAGUGUGAGGAGGA
[3] = system: NRAS translational repressor mut (RNA, G4) GGUAGGGUCGGUUCUGGU

Measured: binding

Nc1nc2c(ncn2[C@@H]2O[C@H](COP(=O)(O)OP(=O)(O)OP(=O)(O)O)[C@@H](O)[C@H]2O)c(=O)[nH]1
weak: all assays above
